# Experimental data taken from PubChem BioAssay AID256 (DTP/NCI, 2004).
# Values joined by “and” are separate entries in the source; they are usually repeats but may differ in a detail not shown here. Equal entries are not always repeated. Toxic doses and inconclusive results are not listed.
# System: CD2F1 mice, L1210 leukemia ip, survival T/C
# Test: NCI In Vivo Anticancer Drug Screen. Data for tumor model L1210 Leukemia (intraperitoneal) in CD2F1 (CDF1) mice
# Conditions: higher = longer survival
# How it was run: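 Implant tumor; dose compound or vehicle; measure endpoint in both groups; report treated divided by control.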
# [1] = endpoint: mean survival time, dose: 5.0 mg/kg/injection, schedule: Q01DX009 (ip), vehicle: saline with Tween-80
# [2] = endpoint: mean survival time, dose: 10.0 mg/kg/injection, schedule: Q01DX009 (ip), vehicle: saline with Tween-80
# [3] = endpoint: mean survival time, dose: 100.0 mg/kg/injection, schedule: Q04DX003 (ip), vehicle: saline with Tween-80
# [4] = endpoint: mean survival time, dose: 200.0 mg/kg/injection, schedule: Q04DX003 (ip), vehicle: saline with Tween-80
# [5] = endpoint: mean survival time, dose: 400.0 mg/kg/injection, schedule: Q04DX003 (ip), vehicle: saline with Tween-80
# [6] = endpoint: mean survival time, dose: 100.0 mg/kg/injection, schedule: Q01DX001 (ip), vehicle: saline with Tween-80
# [7] = endpoint: mean survival time, dose: 200.0 mg/kg/injection, schedule: Q01DX001 (ip), vehicle: saline with Tween-80
# [8] = endpoint: mean survival time, dose: 100.0 mg/kg/injection, schedule: Q01DX009 (ip), vehicle: saline with Tween-80
# [9] = endpoint: mean survival time, dose: 200.0 mg/kg/injection, schedule: Q01DX009 (ip), vehicle: saline with Tween-80
# [10] = endpoint: mean survival time, dose: 400.0 mg/kg/injection, schedule: Q01DX009 (ip), vehicle: saline with Tween-80
structure (smiles),measurement,setting,value
CC1=CC2C(O)(CC(CO)=CC3C4C(C)(C)C4(OC(=O)c4ccccc4)C(OC(=O)c4ccccc4)C(C)C32O)C1=O (stereo unspecified),T/C,"endpoint: median survival time, dose: 0.25 mg/kg/injection, schedule: Q01DX009 (ip), vehicle: saline with Tween-80",95 % of control
same,T/C,"endpoint: median survival time, dose: 0.5 mg/kg/injection, schedule: Q01DX009 (ip), vehicle: saline with Tween-80",94 % of control
same,T/C,"endpoint: median survival time, dose: 1.0 mg/kg/injection, schedule: Q01DX009 (ip), vehicle: saline with Tween-80",94 % of control
C=CC1OC2CCCCC2O1 (stereo unspecified),T/C,"endpoint: mean survival time, dose: 100.0 mg/kg/injection, schedule: Q01DX001 (ip), vehicle: acetone",104 % of control
O=C(CF)[O][Sb]([O]C(=O)CF)([c]1ccccc1)([c]1ccccc1)[c]1ccccc1,T/C,[1],105 % of control
same,T/C,[2],108 % of control
O=S(=O)(Nc1cccc(NS(=O)(=O)c2ccccc2)n1)c1ccccc1,T/C,[3],92 % of control
same,T/C,[4],102 % of control
same,T/C,[5],92 % of control
CC(O)C[As](=O)(O)c1ccc(Cl)cc1 (stereo unspecified),T/C,"endpoint: mean survival time, dose: 6.25 mg/kg/injection, schedule: Q04DX003 (ip), vehicle: saline with Tween-80",95 % of control
same,T/C,"endpoint: mean survival time, dose: 12.5 mg/kg/injection, schedule: Q04DX003 (ip), vehicle: saline with Tween-80",107 % of control
same,T/C,"endpoint: mean survival time, dose: 25.0 mg/kg/injection, schedule: Q04DX003 (ip), vehicle: saline with Tween-80",107 % of control
NC(Cc1ccc(N(CCCl)CCCl)cc1)C(=O)O (stereo unspecified),T/C,"endpoint: mean survival time, dose: 5.0 mg/kg/injection, schedule: Q01DX009 (ip), vehicle: Klucel (hydroxypropylcellulose) (HPC)",106 % of control
same,T/C,[1],121 % of control
same,T/C,"endpoint: mean survival time, dose: 6.4 mg/kg/injection, schedule: Q01DX001 (ip), vehicle: water",104 % of control
same,T/C,"endpoint: mean survival time, dose: 6.4 mg/kg/injection, schedule: Q11HX001 (ip), vehicle: water",104 % of control
same,T/C,"endpoint: mean survival time, dose: 8.0 mg/kg/injection, schedule: Q01DX001 (ip), vehicle: water",101 % of control
same,T/C,"endpoint: mean survival time, dose: 8.0 mg/kg/injection, schedule: Q11HX001 (ip), vehicle: water",101 % of control
same,T/C,"endpoint: mean survival time, dose: 10.0 mg/kg/injection, schedule: Q01DX001 (ip), vehicle: water",105 % of control
same,T/C,"endpoint: mean survival time, dose: 10.0 mg/kg/injection, schedule: Q01DX009 (ip), vehicle: Klucel (hydroxypropylcellulose) (HPC)",105 % of control
same,T/C,[2],113 % of control
same,T/C,"endpoint: mean survival time, dose: 10.0 mg/kg/injection, schedule: Q03DX003 (ip), vehicle: Klucel (hydroxypropylcellulose) (HPC)",183 % of control
same,T/C,"endpoint: mean survival time, dose: 10.0 mg/kg/injection, schedule: Q04DX003 (ip), vehicle: Klucel (hydroxypropylcellulose) (HPC)",168 % of control
same,T/C,"endpoint: mean survival time, dose: 10.0 mg/kg/injection, schedule: Q11HX001 (ip), vehicle: water",105 % of control
same,T/C,"endpoint: mean survival time, dose: 12.5 mg/kg/injection, schedule: Q01DX001 (ip), vehicle: water",104 % of control
same,T/C,"endpoint: mean survival time, dose: 12.5 mg/kg/injection, schedule: Q11HX001 (ip), vehicle: water",104 % of control
same,T/C,"endpoint: mean survival time, dose: 20.0 mg/kg/injection, schedule: Q01DX007 (ip), vehicle: Klucel (hydroxypropylcellulose) (HPC)",94 % of control
same,T/C,"endpoint: mean survival time, dose: 20.0 mg/kg/injection, schedule: Q01DX007 (ip), vehicle: saline with Tween-80",113 % of control
same,T/C,"endpoint: mean survival time, dose: 20.0 mg/kg/injection, schedule: Q01DX009 (ip), vehicle: Klucel (hydroxypropylcellulose) (HPC)",86 % of control
same,T/C,"endpoint: mean survival time, dose: 20.0 mg/kg/injection, schedule: Q01DX009 (ip), vehicle: saline with Tween-80",100 % of control
same,T/C,"endpoint: mean survival time, dose: 20.0 mg/kg/injection, schedule: Q04DX003 (ip), vehicle: Klucel (hydroxypropylcellulose) (HPC)",186 % of control
same,T/C,"endpoint: median survival time, dose: 4.0 mg/kg/injection, schedule: Q01DX009 (ip), vehicle: saline",183 % of control
same,T/C,"endpoint: median survival time, dose: 8.0 mg/kg/injection, schedule: Q01DX009 (ip), vehicle: saline",155 % of control
same,T/C,"endpoint: median survival time, dose: 16.0 mg/kg/injection, schedule: Q01DX009 (ip), vehicle: saline",88 % of control
O=c1cc[nH]c2c(-c3ccccc3)cccc12,T/C,"endpoint: mean survival time, dose: 37.5 mg/kg/injection, schedule: Q01DX009 (ip), vehicle: saline",108 % of control
same,T/C,"endpoint: mean survival time, dose: 75.0 mg/kg/injection, schedule: Q01DX009 (ip), vehicle: saline",105 % of control
same,T/C,"endpoint: mean survival time, dose: 75.0 mg/kg/injection, schedule: Q04DX003 (ip), vehicle: saline",95 % of control
same,T/C,"endpoint: mean survival time, dose: 150.0 mg/kg/injection, schedule: Q01DX009 (ip), vehicle: saline",97 % of control
same,T/C,"endpoint: mean survival time, dose: 150.0 mg/kg/injection, schedule: Q04DX003 (ip), vehicle: saline",98 % of control
same,T/C,"endpoint: mean survival time, dose: 300.0 mg/kg/injection, schedule: Q04DX003 (ip), vehicle: saline",97 % of control
C=C[Si](C)(C=C)C=C,T/C,"endpoint: mean survival time, dose: 100.0 mg/kg/injection, schedule: Q01DX009 (ip), vehicle: saline",95 % of control
same,T/C,"endpoint: mean survival time, dose: 100.0 mg/kg/injection, schedule: Q04DX002 (ip), vehicle: saline",91 % of control
same,T/C,"endpoint: mean survival time, dose: 200.0 mg/kg/injection, schedule: Q01DX009 (ip), vehicle: saline",97 % of control
same,T/C,"endpoint: mean survival time, dose: 200.0 mg/kg/injection, schedule: Q04DX002 (ip), vehicle: saline",98 % of control
same,T/C,"endpoint: mean survival time, dose: 400.0 mg/kg/injection, schedule: Q01DX009 (ip), vehicle: saline",93 % of control
same,T/C,"endpoint: mean survival time, dose: 400.0 mg/kg/injection, schedule: Q04DX002 (ip), vehicle: saline",98 % of control
NC(=S)c1cn(C2OC(CO)C(O)C2O)c2ncnc(N)c12 (stereo unspecified),T/C,"endpoint: median survival time, dose: 2.5 mg/kg/injection, schedule: Q01DX009 (ip), vehicle: suspension in saline",158 % of control
same,T/C,"endpoint: median survival time, dose: 5.0 mg/kg/injection, schedule: Q01DX009 (ip), vehicle: suspension in saline",175 % of control
same,T/C,"endpoint: median survival time, dose: 10.0 mg/kg/injection, schedule: Q01DX009 (ip), vehicle: suspension in saline",91 % of control
O=C(O/N=C(\C(=O)c1ccccc1)c1ccccc1)c1ccc(Br)cc1,T/C,[6],90 % of control
same,T/C,[7],90 % of control
COC(=O)C1CC23C=CCN4CC(C2C)C2(c5ccccc5NC12)C43 (stereo unspecified),T/C,"endpoint: mean survival time, dose: 8.0 mg/kg/injection, schedule: Q01DX001 (ip), vehicle: saline",102 % of control
same,T/C,"endpoint: mean survival time, dose: 16.0 mg/kg/injection, schedule: Q01DX001 (ip), vehicle: saline",96 % of control
same,T/C,"endpoint: mean survival time, dose: 32.0 mg/kg/injection, schedule: Q01DX001 (ip), vehicle: saline",102 % of control
same,T/C,"endpoint: mean survival time, dose: 64.0 mg/kg/injection, schedule: Q01DX001 (ip), vehicle: saline",101 % of control
O=C(COc1cccc(Cl)c1)NCc1ccccc1NC(=O)c1ccc(S(=O)(=O)F)cc1,T/C,[6],91 % of control
same,T/C,[7],95 % of control
same,T/C,"endpoint: mean survival time, dose: 400.0 mg/kg/injection, schedule: Q01DX001 (ip), vehicle: saline with Tween-80",91 % of control
O=C1C(=C(C(F)(F)F)C(F)(F)F)CCc2ccc([N+](=O)[O-])cc21,T/C,[8],102 % of control
same,T/C,[3],114 % of control
same,T/C,[9],104 % of control
same,T/C,[4],101 % of control
same,T/C,[10],102 % of control
same,T/C,[5],103 % of control
CSc1cc(N)nc2c1nnn2C1OC(CO)C(O)C1O (stereo unspecified),T/C,"endpoint: mean survival time, dose: 12.5 mg/kg/injection, schedule: Q01DX005 (ip), vehicle: water",94 % of control
same,T/C,"endpoint: mean survival time, dose: 25.0 mg/kg/injection, schedule: Q01DX005 (ip), vehicle: water",100 % of control
same,T/C,"endpoint: mean survival time, dose: 50.0 mg/kg/injection, schedule: Q01DX005 (ip), vehicle: water",95 % of control
same,T/C,"endpoint: mean survival time, dose: 100.0 mg/kg/injection, schedule: Q01DX005 (ip), vehicle: water",90 % of control
same,T/C,"endpoint: mean survival time, dose: 200.0 mg/kg/injection, schedule: Q01DX005 (ip), vehicle: water",87 % of control
O=C(/C=C(\NC1CCCCC1)C(=O)c1ccccc1)c1ccccc1,T/C,[8],87 % of control
same,T/C,[9],98 % of control
same,T/C,[4],86 % of control
same,T/C,[10],97 % of control
same,T/C,[5],86 % of control
O=C(C(=O)c1ccc(Cl)cc1)c1ccc(Cl)cc1,T/C,"endpoint: mean survival time, dose: 6.25 mg/kg/injection, schedule: Q04DX003 (ip), vehicle: other",94 % of control
same,T/C,"endpoint: mean survival time, dose: 12.5 mg/kg/injection, schedule: Q04DX003 (ip), vehicle: other",90 % of control
same,T/C,"endpoint: mean survival time, dose: 25.0 mg/kg/injection, schedule: Q04DX003 (ip), vehicle: other",90 % of control
CC1(C)OCC(CO)(Nc2nc(N3CC3)nc(N3CC3)n2)CO1,T/C,"endpoint: mean survival time, dose: 0.31 mg/kg/injection, schedule: Q01DX009 (ip), vehicle: saline",111 % of control
same,T/C,"endpoint: mean survival time, dose: 0.62 mg/kg/injection, schedule: Q01DX009 (ip), vehicle: saline",117 % of control and 112 % of control
same,T/C,"endpoint: mean survival time, dose: 1.25 mg/kg/injection, schedule: Q01DX009 (ip), vehicle: saline",194 % of control
same,T/C,"endpoint: mean survival time, dose: 2.5 mg/kg/injection, schedule: Q01DX009 (ip), vehicle: saline",186 % of control and 221 % of control and 104 % of control
